Several values for one entry are separate records, joined by “and”; a condition that tells them apart may be missing. Identical values can stand only once.
Assays:
ApoE^–/– mice on an HFD [1] = assay: Histological grading and scoring of livers; assay type: in vivo, mouse; set-up: key to Liver Grading and Staging: Lobular inflammation (CD3+): one focus in which more than 10 periductal CD3^+ lymphocytes are found in an ×200 field; 2 to 5 instances of more than 10 periductal CD3^+ immune cells in an ×200 field; 3: Any sample exceeding this threshold
Description: For 6 weeks, mice were freely administered water, water containing 150 mM SerBut, or water containing an equimolar amount of NaBut. SerBut water was pH adjusted using 10 M NaOH to a final pH of 7.4. […] In concert, mice were fed an HFD with 42% from fat and 0.2% total cholesterol (Envigo, TD-88137) ad libitum. After 6 weeks, mice were euthanized. The lMLNs, ILNs, spleen, heart, and aorta were harvested and processed for flow cytometry analysis ([67]). The liver was harvested and part was homogenized in tissue protein extraction reagent buffer (Invitrogen, 78510) supplemented with protease inhibitor mini tablets (Thermo Fisher Scientific, PIA32955) for Western blotting and qPCR. The remaining liver was fixed with 4% paraformaldehyde and embedded in paraffin for histological analysis.
Sections (8 μm thick) were stained. Digital image files were created with an Olympus VS200 Research Slide Scanner (Olympus/Evident) with a Hamamatsu ORca-Fusion camera (Hamamatsu Photonics) at ×40 magnification. Individual images were created with the OlyVIA Viewer software (Olympus/Evident). Scoring and grading was performed by a pathologist as previously described ([48]). Immunohistochemistry grading was informed by age-matched WT controls. In age-matched WT controls, CD3^+ immune cells were seen scattered without distinct aggregate formation nor associated tissue reaction. In an ×400 field, we observed up to 25 CD3^+ immune cells scattered in an even distribution, with rare events of up to 10 periductal CD3^+ immune cells but with no associated ductal or parenchymal reaction. […] Furthermore, a score of 2 corresponds to 2 to 5 instances of more than 10 periductal CD3^+ immune cells in an ×200 field. Any sample exceeding this threshold was scored a 3.

ApoE^–/– mice on an HFD [2] = assay: Flow cytometry of blood, lymph nodes and spleen; assay type: in vivo, mouse; set-up: Treg / Th17 / F480+CD11b+ Macrophages / iNOS+ Macs / Arg1+ Macs: unit not given here
Description: SerBut water was pH adjusted using 10 M NaOH to a final pH of 7.4. […] After 6 weeks, mice were euthanized. The lMLNs, ILNs, spleen, heart, and aorta were harvested and processed for flow cytometry analysis ([67]). […] The remaining liver was fixed with 4% paraformaldehyde and embedded in paraffin for histological analysis.
Flow cytometry was performed using a BD LSRFortessa or a Cytek Aurora full-spectrum cytometer.

RAW 264.7 macrophages = assay: Flow cytometry of iNOS, CD80, CD86 in LPS-stimulated RAW 264.7; assay type: cell-based; conditions: for CD80+ % Live / CD86+ % Live / iNOS+ %Live: listed as SB
Description: RAW 264.7 (ATCC, TIB-71) macrophages were cultured at 37°C and 5% CO2 in DMEM (Gibco) supplemented with 1 mM HEPES, 1 mM sodium pyruvate, 10% FBS, and penicillin/streptomycin. Cells were plated in round-bottom 96-well plates at 100,000 cells per well and incubated with different concentrations of either NaBut or SerBut (0.15–12 mM) for 24 hours. […] The cell culture supernatant was collected and analyzed by LEGENDPlex to analyze the concentrations of cytokines (BioLegend). Cell phenotype was analyzed using flow cytometry (Cytek Aurora).
Flow cytometry was performed using a BD LSRFortessa or a Cytek Aurora full-spectrum cytometer. Data were analyzed using FlowJo version 10.8.0. eFluor 780 Viability Dye (Invitrogen, 65-0865-14) and antibodies against the following markers were used in the RAW 264.7 macrophage in vitro studies: CD86 (BV421; BD Horizon, catalog 564198), CD80 (BC650; BioLegend, clone 16-10A1, catalog 104732), and iNOS (APC; Invitrogen, clone CXNFT, catalog 17-5920-9). Live/Dead Blue (Invitrogen, 123105A) and antibodies against the following markers were used in the atherosclerosis mouse models: F4/80 (FITC; BioLegend, clone BM8, catalog 123108), CD3e (BV605; BD Biosciences, clone 145-2C11, catalog 563565), CD4 (BUV496; BD Biosciences, clone GK 1.5, catalog 612952), RORγt (AF647; BD Biosciences, clone Q31-378, catalog 562682), FoxP3 (AF488, BD Biosciences, clone MF23, catalog 560403), CCR2 (PE; R&D Systems, catalog FAB5538P), Ly6C (APC-Cy7; BioLegend, catalog 128026, clone HK1.4), Ly6G (AF488; BioLegend, catalog 127626), CD8 (APC-Cy7; BioLegend, clone 53-6.7, catalog 100714), CD45 (BUV805; Invitrogen, clone 30-F11, catalog 368-0451-82), and CD25 (PerCP-Cy5.5; BioLegend, clone PC61, catalog 102030).

[3] = liver, individual mice, 150 mM ad libitum for 6 weeks, HFD
[4] = Inguinal Lymph Node Flow, individual mice
[5] = Mesenteric Lymph Node Flow, individual mice
[6] = 4 mM, 12 Hour LPS stim after Butyrate treament
[7] = 4 mM, 12 hour LPS stim before butyrate treatment
[8] = 12 mM, 12 Hour LPS stim after Butyrate treament
[9] = 12 mM, 12 hour LPS stim before butyrate treatment

SMILES: CCCC(=O)OC[C@H](N)C(=O)O [SerBut, O-butyryl-L-serine]
- CD3^+ immune cell infiltration into the livers, lobular inflammation (ApoE^–/– mice on an HFD [1]; 6 weeks): Neither SerBut nor NaBut significantly reduced
- hepatocellular nuclear hypertrophy (ApoE^–/– mice on an HFD [1]; 6 weeks): suppressed
- liver steatosis (macrovesicular fat) score (ApoE^–/– mice on an HFD [1]; 6 weeks): significantly suppressed
- overall summed histological liver score (ApoE^–/– mice on an HFD [1]; 6 weeks): reduced liver pathology
- Liver Grading and Staging: Balooning Grade, Hypertrophy (ApoE^–/– mice on an HFD [1]; [3]): 2 and 1 and 0
- Liver Grading and Staging: Lobular inflammation (CD3+) (ApoE^–/– mice on an HFD [1]; [3]): 1 and 0 and 2
- Liver Grading and Staging: Steatosis Grade, Macro fat (ApoE^–/– mice on an HFD [1]; [3]): 0 and 2
- NAS score (steatosis, inflammation, Ballooning) (ApoE^–/– mice on an HFD [1]; [3]): 3 and 2 and 6 and 1
- frequency of circulating Ly6G^+CD11b^+ neutrophils (ApoE^–/– mice on an HFD [2]; 6 weeks, compared with both NaBut- and water-treated controls): significantly reduced
- Arg1+ Macs (ApoE^–/– mice on an HFD [2]; [4]): 3.53 and 2.72 and 2.64 and 3.19 and 3.9 and 5.62 and 3.61 and 5.94 and 4.82 and 4.83 and 3.4 and 2.08 and 3.78 and 5.04
- F480+CD11b+ Macrophages (ApoE^–/– mice on an HFD [2]; [4]): 0.56 and 0.54 and 0.36 and 0.83 and 0.61 and 1.4 and 0.33 and 0.64 and 0.46 and 0.86 and 0.43 and 0.29
- Th17 (ApoE^–/– mice on an HFD [2]; [4]): 7.49 and 5.92 and 1.67 and 2.37 and 3.33 and 2.23 and 8.03 and 16.8 and 2.7
- Th17/Treg (ApoE^–/– mice on an HFD [2]; [4]): 0.5095 and 0.3947 and 0.09489 and 0.1274 and 0.2068 and 0.1161 and 0.4294 and 1.037 and 0.1588
- Treg (ApoE^–/– mice on an HFD [2]; [4]): 14.7 and 15 and 17.6 and 18.6 and 16.1 and 19.2 and 18.7 and 16.2 and 17
- iNOS+ Macs (ApoE^–/– mice on an HFD [2]; [4]): 5.43 and 3.21 and 3.87 and 2.26 and 2.24 and 2.49 and 6.09 and 2.15 and 4.59 and 2.91 and 7.23 and 2.89 and 7.07 and 5.7
- Th17/Treg cell ratio (ApoE^–/– mice on an HFD [2]; MLNs and spleen): reduced the Th17/Treg cell ratio
- iNOS^+ of CD11b^+F480^+ macrophages (ApoE^–/– mice on an HFD [2]; MLNs, not ILNs, compared with controls, but not NaBut-treated mice): significantly decreased
- regulatory T cells (ApoE^–/– mice on an HFD [2]; MLNs, not skin-draining lymph nodes or spleen): expanded
- Arg1+ Macs (ApoE^–/– mice on an HFD [2]; [5]): 3.56 and 1.85 and 2.39 and 1.1 and 1.07 and 1.12 and 0.97 and 1.19 and 1.91 and 0.93 and 1.08 and 1.16 and 0.95
- F480+CD11b+ Macrophages (ApoE^–/– mice on an HFD [2]; [5]): 5.85 and 7.28 and 6.98 and 8.63 and 11.2 and 7.11 and 5.47 and 7.35 and 5.84 and 3.45 and 4.72 and 5.77 and 7.09
- Th17 (ApoE^–/– mice on an HFD [2]; [5]): 7.78 and 13.7 and 14.7 and 8.43 and 9.66 and 19.2 and 12
- Th17/Treg (ApoE^–/– mice on an HFD [2]; [5]): 0.5329 and 0.6372 and 0.9423 and 0.493 and 0.6114 and 1.091 and 0.7843
- Treg (ApoE^–/– mice on an HFD [2]; [5]): 14.6 and 21.5 and 15.6 and 17.1 and 15.8 and 17.6 and 15.3
- iNOS+ Macs (ApoE^–/– mice on an HFD [2]; [5]): 0.64 and 1 and 0.46 and 0.71 and 0.58 and 0.74 and 0.6 and 0.68 and 1.54 and 0.88 and 0.65 and 0.69
- Th17 (ApoE^–/– mice on an HFD [2]; Spleen Flow, individual mice): 0.83 and 1.07 and 1.3 and 0.97 and 1.12 and 1.08 and 1 and 1.34
- Th17/Treg (ApoE^–/– mice on an HFD [2]; Spleen Flow, individual mice): 0.115 and 0.1219 and 0.1671 and 0.1127 and 0.16 and 0.145 and 0.1264 and 0.1603
- Treg (ApoE^–/– mice on an HFD [2]; Spleen Flow, individual mice): 7.22 and 8.78 and 7.78 and 8.61 and 7 and 7.45 and 7.91 and 8.36
- Blood Neutrophils: CD11b+Ly6G+ %CD45 (ApoE^–/– mice on an HFD [2]; blood, individual mice): 12.2 %CD45 and 10.2 %CD45 and 11.9 %CD45 and 16 %CD45 and 15.3 %CD45 and 6.9 %CD45 and 6.35 %CD45 and 13.7 %CD45 and 8 %CD45 and 10.6 %CD45 and 17.9 %CD45 and 2.21 %CD45 and 2.25 %CD45 and 7.63 %CD45
- CD80 MFI (RAW 264.7 macrophages; 1.3 mM 24 h, then LPS 6 h): 22757 and 22379 and 22182 and 22697 and 22413
- iNOS MFI (RAW 264.7 macrophages; 1.3 mM 24 h, then LPS 6 h): 133476 and 131849 and 120651 and 126894 and 131328
- CD80 MFI (RAW 264.7 macrophages; 4 mM 24 h, then LPS 6 h): 22258 and 21750 and 21713 and 21977 and 22364 and 21487
- iNOS MFI (RAW 264.7 macrophages; 4 mM 24 h, then LPS 6 h): 123258 and 124792 and 115548 and 125159 and 131532 and 119298
- CD80+ % Live (RAW 264.7 macrophages; [6]): 20.6% and 26% and 25.2%
- CD86+ % Live (RAW 264.7 macrophages; [6]): 6.07% and 6.44% and 6.25%
- iNOS+ %Live (RAW 264.7 macrophages; [6]): 57.8% and 66.6% and 65.8%
- CD80+ % Live (RAW 264.7 macrophages; [7]): 45.8% and 43.1% and 44.5%
- CD86+ % Live (RAW 264.7 macrophages; [7]): 14.9% and 14.1% and 14.2%
- iNOS+ %Live (RAW 264.7 macrophages; [7]): 40.8% and 45.6% and 40.9%
- iNOS and CD80 expression after LPS stimulation (RAW 264.7 macrophages; 12 mM): significantly reduced
- CD80 MFI (RAW 264.7 macrophages; 12 mM 24 h, then 200 ng/mL LPS 6 h): 20826 and 21079 and 20195 and 20493 and 21214 and 20412
- iNOS MFI (RAW 264.7 macrophages; 12 mM 24 h, then LPS 6 h): 95330 and 101513 and 93052 and 99228 and 94381 and 96644
- CD80+ % Live (RAW 264.7 macrophages; [8]): 13.7% and 18.3% and 22.8%
- CD86+ % Live (RAW 264.7 macrophages; [8]): 6.99% and 8.29% and 9.22%
- iNOS+ %Live (RAW 264.7 macrophages; [8]): 26.5% and 43.9% and 50.9%
- CD80+ % Live (RAW 264.7 macrophages; [9]): 43.1% and 48% and 48.3%
- CD86+ % Live (RAW 264.7 macrophages; [9]): 14.5% and 13.5% and 15.9%
- iNOS+ %Live (RAW 264.7 macrophages; [9]): 31.3% and 49.4% and 36.1%
- iNOS-suppressing capacity during longer LPS stimulations (RAW 264.7 macrophages; high doses): maintained

From article PMC12333940, “A prometabolite strategy inhibits cardiometabolic disease in an ApoE^–/– murine model of atherosclerosis” (JCI Insight, 2025)
